# Measurements: patent publication US20230365514A1, “MACROCYCLIC COMPOUNDS” (NOVO NORDISK RESEARCH CENTRE OXFORD LIMITED, priority 2017, published 2023)
# Values joined by “and” are separate entries in the source; they are usually repeats but may differ in a detail not shown here. Identical values can stand only once.
# What was measured:
# [1] = ITC titration with D-glucose; assay type: binding; details: d-glucose in 10 mM phosphate buffer, 298 K (Table 6)
# Procedure: ITC experiments were carried out at 298 K. Saccharide solutions were prepared in HPLC-grade water with 10 mM phosphate buffer solution (pH 7.4) and allowed to equilibrate overnight if necessary. The sample cell was charged with a known concentration of receptor solution in HPLC-grade water with 10 mM phosphate buffer solution at pH 7.4 (typically 50 µM - 200 µM). Then, aliquots (typically 1.0 µL) of carbohydrate solution were added and the evolution of heat was followed as a function of time. Heats of dilution were measured by injecting the same carbohydrate solution into HPLC-grade water with 10 mM phosphate buffer solution at pH 7.4, using identical conditions. For every addition, the heat of dilution was subtracted from the heat of binding using a MicroCal software programme implemented in ORIGIN 7.0. This gave an XY matrix of heat vs. total guest concentration. This matrix was then imported into a specially written Excel programme to fit the data to a 1:1 binding model to give a Ka. ΔG can be derived from Ka and thus ΔS can be derived from ΔH and ΔG using common thermodynamic equations. […] This method consistently produced more accurate fits than fitting the data to an S-curve, as in the MicroCal software (S-curves are typically not observed for binding constants below ~104 - 105 M^-1).
# [2] = 1H NMR titration with D-glucose; assay type: binding; details: D2O; buffer differs by receptor (FIGS. 68-73, 77) (Table 6)
# Procedure: ^1H-NMR titrations were performed on a Varian VNMR cryogenically cooled S600 spectrometer. Solutions of saccharides in D2O (99.9%), containing receptor at a known concentration to be used in the experiment, were prepared and allowed to equilibrate overnight before use if necessary. Aliquots were then added to an NMR tube containing a known concentration of receptor solution (typically 100 µM - 400 µM). The receptor concentration was therefore held constant while the carbohydrate concentration was increased. The sample tube was shaken after each addition and ^1H-NMR spectra were acquired at 298 K.
# ^1H-NMR titrations were performed on a Varian VNMR cryogenically cooled S600 spectrometer. Solutions of saccharides in D2O (99.9%), containing receptor at a known concentration to be used in the experiment, were prepared and allowed to equilibrate overnight before use if necessary. Aliquots were then added to an NMR tube containing a known concentration of receptor solution (typically 50 µM - 250 µM). The receptor concentration was therefore held constant while the carbohydrate concentration was increased. The sample tube was shaken after each addition, centrifuged and ^1H-NMR spectra were acquired at 298 K.
# If the receptor bound saccharide slower than the NMR sample rate (“slow exchange”), the Ka was determined by analysing the NMR integral of a peak assigned to the Host-Guest complex. The variable X was defined as the integral of an isolated resonance of the complex (typically in the aromatic region) divided by the integral of all the related resonances (typically the whole aromatic region). As X is proportional to fraction of host in the bound state, the change in X could be plotted as a function of the guest concentration to give a curve which could be fitted to a 1:1 binding model to yield the association constant Ka. Mathematically, the fitting process is essentially identical to that employed for binding with fast exchange, except that the integral of a peak due to the complex replaces the chemical shift of a peak due to bound + unbound receptor. The calculation was performed using a non-linear least squares curve-fitting programme implemented within Excel. The programme yields binding constants Ka and limiting X (Xlim) as output. An estimated error for Ka was obtained from individual data points by assuming the determined Ka and Xlim.
SMILES,"Binding affinity for D-glucose (Ka), Determined by ITC [1]","Binding affinity for D-glucose (Ka), Determined by 1H-NMR [2]"
Cc1c2c(C)c3c(C)c1CNC(=O)Nc1ccc(C(=O)NC(CCC(=O)NC(CCC(=O)O)(CCC(=O)O)CCC(=O)O)(CCC(=O)NC(CCC(=O)O)(CCC(=O)O)CCC(=O)O)CCC(=O)NC(CCC(=O)O)(CCC(=O)O)CCC(=O)O)cc1NC(=O)NCc1c(C)c(c(C)c(c1C)CNC(=O)Nc1cc(C(=O)NC(CCC(=O)NC(CCC(=O)O)(CCC(=O)O)CCC(=O)O)(CCC(=O)NC(CCC(=O)O)(CCC(=O)O)CCC(=O)O)CCC(=O)NC(CCC(=O)O)(CCC(=O)O)CCC(=O)O)ccc1NC(=O)NC3)CNC(=O)Nc1cc(C(=O)NC(CCC(=O)NC(CCC(=O)O)(CCC(=O)O)CCC(=O)O)(CCC(=O)NC(CCC(=O)O)(CCC(=O)O)CCC(=O)O)CCC(=O)NC(CCC(=O)O)(CCC(=O)O)CCC(=O)O)ccc1NC(=O)NC2 [Receptor 8],4210 M⁻¹ and 4210 ± 73 M⁻¹,–
CCc1c2c(CC)c3c(CC)c1CNC(=O)Nc1ccc(C(=O)NCCOCCOCCOCCN)cc1NC(=O)NCc1c(CC)c(c(CC)c(c1CC)CNC(=O)Nc1cc(C(=O)NCCOCCOCCOCCN)ccc1NC(=O)NC3)CNC(=O)Nc1cc(C(=O)NCCOCCOCCOCCN)ccc1NC(=O)NC2 [Receptor 10],–,481 ± 57 M⁻¹
"CCc1c2c(CC)c3c(CC)c1CNC(=O)Nc1cc(C(=O)[O-])c(C(=O)[O-])cc1NC(=O)NCc1c(CC)c(c(CC)c(c1CC)CNC(=O)Nc1cc(C(=O)[O-])c(C(=O)[O-])cc1NC(=O)NC3)CNC(=O)Nc1cc(C(=O)[O-])c(C(=O)[O-])cc1NC(=O)NC2.[Na+].[Na+].[Na+].[Na+].[Na+].[Na+] [Receptor 11, Hexa-carboxylate Hexa-urea Macrocycle]",–,~ 2000 M^-1
CCc1c2c(CC)c3c(CC)c1CNC(=O)Nc1cc(C(=O)NC(CCC(=O)NC(CCC(=O)[O-])(CCC(=O)[O-])CCC(=O)[O-])(CCC(=O)NC(CCC(=O)[O-])(CCC(=O)[O-])CCC(=O)[O-])CCC(=O)NC(CCC(=O)[O-])(CCC(=O)[O-])CCC(=O)[O-])ccc1NC(=O)NCc1c(OC)c(c(OC)c(c1OC)CNC(=O)Nc1ccc(C(=O)NC(CCC(=O)NC(CCC(=O)[O-])(CCC(=O)[O-])CCC(=O)[O-])(CCC(=O)NC(CCC(=O)[O-])(CCC(=O)[O-])CCC(=O)[O-])CCC(=O)NC(CCC(=O)[O-])(CCC(=O)[O-])CCC(=O)[O-])cc1NC(=O)NC3)CNC(=O)Nc1ccc(C(=O)NC(CCC(=O)NC(CCC(=O)[O-])(CCC(=O)[O-])CCC(=O)[O-])(CCC(=O)NC(CCC(=O)[O-])(CCC(=O)[O-])CCC(=O)[O-])CCC(=O)NC(CCC(=O)[O-])(CCC(=O)[O-])CCC(=O)[O-])cc1NC(=O)NC2.[Na+].[Na+].[Na+].[Na+].[Na+].[Na+].[Na+].[Na+].[Na+].[Na+].[Na+].[Na+].[Na+].[Na+].[Na+].[Na+].[Na+].[Na+].[Na+].[Na+].[Na+].[Na+].[Na+].[Na+].[Na+].[Na+].[Na+] [Receptor 13],1310 M⁻¹ and 1310 ± 33 M⁻¹,–
CCc1c2c(CC)c3c(CC)c1CNC(=O)Nc1ccc(C(=O)NC(CCC(=O)NC(CCC(=O)[O-])(CCC(=O)[O-])CCC(=O)[O-])(CCC(=O)NC(CCC(=O)[O-])(CCC(=O)[O-])CCC(=O)[O-])CCC(=O)NC(CCC(=O)[O-])(CCC(=O)[O-])CCC(=O)[O-])cc1NC(=O)NCc1c(C)c(c(C)c(c1C)CNC(=O)Nc1cc(C(=O)NC(CCC(=O)NC(CCC(=O)[O-])(CCC(=O)[O-])CCC(=O)[O-])(CCC(=O)NC(CCC(=O)[O-])(CCC(=O)[O-])CCC(=O)[O-])CCC(=O)NC(CCC(=O)[O-])(CCC(=O)[O-])CCC(=O)[O-])ccc1NC(=O)NC3)CNC(=O)Nc1cc(C(=O)NC(CCC(=O)NC(CCC(=O)[O-])(CCC(=O)[O-])CCC(=O)[O-])(CCC(=O)NC(CCC(=O)[O-])(CCC(=O)[O-])CCC(=O)[O-])CCC(=O)NC(CCC(=O)[O-])(CCC(=O)[O-])CCC(=O)[O-])ccc1NC(=O)NC2.[Na+].[Na+].[Na+].[Na+].[Na+].[Na+].[Na+].[Na+].[Na+].[Na+].[Na+].[Na+].[Na+].[Na+].[Na+].[Na+].[Na+].[Na+].[Na+].[Na+].[Na+].[Na+].[Na+].[Na+].[Na+].[Na+].[Na+] [Receptor 14],–,14926 ± 1566 M⁻¹
